According to PubChem BioAssay AID276 (DTP/NCI, 2004):
Where “and” joins values, the source holds several entries; their conditions need not be identical. Equal values may be shown once. Inconclusive results and toxic doses are left out.

System: B6C3F1 mice, Lewis lung carcinoma iv, survival T/C
Experiment: NCI In Vivo Anticancer Drug Screen. Data for tumor model Lewis Lung Carcinoma (intravenous) in B6C3F1 mice
Conditions: endpoint: median survival time, schedule: Q01DX009 (ip), higher = longer survival
In short: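 Transplantable tumor in mice; compound treated vs vehicle controls; read-out survival; value = treated/control (T/C).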

[1] = dose: 12.5 mg/kg/injection, vehicle: saline
[2] = dose: 25.0 mg/kg/injection, vehicle: saline with Tween-80
[3] = dose: 50.0 mg/kg/injection, vehicle: saline with Tween-80
[4] = dose: 100.0 mg/kg/injection, vehicle: saline with Tween-80
[5] = dose: 25.0 mg/kg/injection, vehicle: saline
[6] = dose: 50.0 mg/kg/injection, vehicle: saline
[7] = dose: 100.0 mg/kg/injection, vehicle: saline
[8] = dose: 200.0 mg/kg/injection, vehicle: saline
[9] = dose: 400.0 mg/kg/injection, vehicle: saline

NC(=O)c1csc(C2OC(CO)C(O)C2O)n1 (configuration not stated)
T/C (dose: 0.78 mg/kg/injection, vehicle: saline): 94 % of control | T/C (dose: 1.56 mg/kg/injection, vehicle: saline): 109 % of control | T/C (dose: 3.12 mg/kg/injection, vehicle: saline): 108 % of control | T/C (dose: 6.25 mg/kg/injection, vehicle: saline): 119 % of control | T/C (dose: 12.0 mg/kg/injection, vehicle: saline): 155 % of control and 158 % of control | T/C [1]: 284 % of control | T/C (dose: 25.0 mg/kg/injection, vehicle: water): 240 % of control and 348 % of control and 355 % of control | T/C (dose: 50.0 mg/kg/injection, vehicle: water): 240 % of control and 348 % of control and 355 % of control | T/C (dose: 62.5 mg/kg/injection, vehicle: water): 295 % of control | T/C (dose: 100.0 mg/kg/injection, vehicle: water): 240 % of control and 348 % of control and 355 % of control | T/C (dose: 125.0 mg/kg/injection, vehicle: water): 295 % of control | T/C (dose: 200.0 mg/kg/injection, vehicle: water): 240 % of control and 348 % of control and 355 % of control | T/C (dose: 250.0 mg/kg/injection, vehicle: water): 295 % of control | T/C (dose: 400.0 mg/kg/injection, vehicle: water): 240 % of control and 348 % of control and 355 % of control | T/C (dose: 500.0 mg/kg/injection, vehicle: water): 295 % of control | T/C (dose: 800.0 mg/kg/injection, vehicle: water): 240 % of control | T/C (dose: 1000.0 mg/kg/injection, vehicle: water): 295 % of control

O=C1c2ccccc2C(=O)c2c3c(cc(NCCNCCO)c21)N(CCO)CCN3
T/C (dose: 12.5 mg/kg/injection, vehicle: DMSO): 101 % of control | T/C (dose: 25.0 mg/kg/injection, vehicle: DMSO): 95 % of control | T/C (dose: 50.0 mg/kg/injection, vehicle: DMSO): 104 % of control | T/C (dose: 100.0 mg/kg/injection, vehicle: DMSO): 101 % of control | T/C (dose: 200.0 mg/kg/injection, vehicle: DMSO): 96 % of control

O=C1CN(Cc2ccc3c(c2)OCO3)NO1
T/C (dose: 6.25 mg/kg/injection, vehicle: saline with Tween-80): 104 % of control and 109 % of control | T/C (dose: 12.5 mg/kg/injection, vehicle: saline with Tween-80): 106 % of control and 87 % of control | T/C [2]: 104 % of control and 123 % of control | T/C [3]: 104 % of control and 111 % of control | T/C [4]: 123 % of control and 86 % of control

OCC(O)C(O)C(O)C(O)CO (configuration not stated)
T/C (dose: 75.0 mg/kg/injection, vehicle: saline): 100 % of control | T/C (dose: 150.0 mg/kg/injection, vehicle: saline): 96 % of control | T/C (dose: 300.0 mg/kg/injection, vehicle: saline): 92 % of control | T/C (dose: 600.0 mg/kg/injection, vehicle: saline): 95 % of control | T/C (dose: 1200.0 mg/kg/injection, vehicle: saline): 98 % of control

COC1=C2C[C@@H](C)C[C@@H](OC)[C@@H](O)[C@H](C)/C=C(\C)[C@@H](OC(N)=O)[C@H](OC)/C=C\C=C(/C)C(=O)NC(=CC1=O)C2=O
T/C (dose: 0.12 mg/kg/injection, vehicle: saline with Tween-80): 96 % of control | T/C (dose: 0.13 mg/kg/injection, vehicle: saline with Tween-80): 109 % of control | T/C (dose: 0.25 mg/kg/injection, vehicle: saline with Tween-80): 96 % of control and 110 % of control | T/C (dose: 0.5 mg/kg/injection, vehicle: saline with Tween-80): 101 % of control and 108 % of control | T/C (dose: 1.0 mg/kg/injection, vehicle: saline with Tween-80): 101 % of control and 106 % of control | T/C (dose: 2.0 mg/kg/injection, vehicle: saline with Tween-80): 100 % of control and 106 % of control | T/C (dose: 4.0 mg/kg/injection, vehicle: saline with Tween-80): 102 % of control

O=C1N[C@H]2[C@H](CS[C@H]2CCCCC(=O)N(CCP(c2ccccc2)c2ccccc2)CCP(c2ccccc2)c2ccccc2)N1
T/C (dose: 25.0 mg/kg/injection, vehicle: Klucel (hydroxypropylcellulose) (HPC)): 93 % of control and 114 % of control | T/C (dose: 50.0 mg/kg/injection, vehicle: Klucel (hydroxypropylcellulose) (HPC)): 98 % of control and 88 % of control | T/C (dose: 100.0 mg/kg/injection, vehicle: Klucel (hydroxypropylcellulose) (HPC)): 102 % of control | T/C (dose: 200.0 mg/kg/injection, vehicle: Klucel (hydroxypropylcellulose) (HPC)): 92 % of control and 98 % of control

Cc1ncc([N+](=O)[O-])n1CCSC(N)=O
T/C [1]: 107 % of control | T/C [5]: 102 % of control | T/C [6]: 110 % of control | T/C [7]: 95 % of control | T/C [8]: 106 % of control | T/C [9]: 97 % of control

O=C1CCC(=O)N1CO
T/C [5]: 94 % of control | T/C [6]: 98 % of control | T/C [7]: 94 % of control | T/C [8]: 103 % of control | T/C [9]: 106 % of control

O=NN(CCF)C(=O)NCCO
T/C (dose: 5.0 mg/kg/injection, vehicle: saline): 238 % of control | T/C (dose: 10.0 mg/kg/injection, vehicle: saline): 215 % of control

COc1cccc2c1C(=O)c1c(O)c3c(c(O)c1C2=O)C[C@@](O)(C(=O)CO)C[C@@H]3OC1CC(OC(C)=O)C(OC(C)=O)C(C)O1 (some centres not stated)
T/C (dose: 0.78 mg/kg/injection, vehicle: water): 91 % of control | T/C (dose: 1.5 mg/kg/injection, vehicle: water): 119 % of control | T/C (dose: 1.56 mg/kg/injection, vehicle: distilled water + Tween-80): 106 % of control | T/C (dose: 1.56 mg/kg/injection, vehicle: water): 103 % of control | T/C (dose: 3.0 mg/kg/injection, vehicle: water): 111 % of control | T/C (dose: 3.12 mg/kg/injection, vehicle: distilled water + Tween-80): 113 % of control | T/C (dose: 3.12 mg/kg/injection, vehicle: water): 111 % of control | T/C (dose: 12.0 mg/kg/injection, vehicle: water): 266 % of control | T/C (dose: 12.5 mg/kg/injection, vehicle: distilled water + Tween-80): 285 % of control

CCC(C)Nc1ccc(N)cc1 (configuration not stated)
T/C (dose: 1.5 mg/kg/injection, vehicle: Klucel (hydroxypropylcellulose) (HPC)): 86 % of control | T/C (dose: 3.0 mg/kg/injection, vehicle: Klucel (hydroxypropylcellulose) (HPC)): 98 % of control | T/C (dose: 6.0 mg/kg/injection, vehicle: Klucel (hydroxypropylcellulose) (HPC)): 94 % of control | T/C (dose: 12.0 mg/kg/injection, vehicle: Klucel (hydroxypropylcellulose) (HPC)): 93 % of control

CCCCNC(C)C1(O)Cc2c(O)c3c(c(O)c2C(OC2CC(N)C(O)C(C)O2)C1)C(=O)c1c(OC)cccc1C3=O (configuration not stated)
T/C (dose: 10.0 mg/kg/injection, vehicle: water): 108 % of control | T/C (dose: 20.0 mg/kg/injection, vehicle: water): 101 % of control | T/C (dose: 40.0 mg/kg/injection, vehicle: water): 107 % of control | T/C (dose: 80.0 mg/kg/injection, vehicle: water): 113 % of control

C[C@]12CC[C@H](O)CC1=CC[C@@H]1[C@@H]2CC[C@]2(C)C(=O)CC[C@@H]12
T/C [2]: 105 % of control | T/C [3]: 100 % of control | T/C [4]: 101 % of control | T/C (dose: 200.0 mg/kg/injection, vehicle: saline with Tween-80): 94 % of control | T/C (dose: 400.0 mg/kg/injection, vehicle: saline with Tween-80): 99 % of control

NC(CCC(=O)NC(CS)C(=O)NCC(=O)O)C(=O)O (configuration not stated)
T/C [6]: 100 % of control | T/C [7]: 101 % of control | T/C [8]: 95 % of control | T/C [9]: 103 % of control
